Measured values: patent US20240215873A1, “Aptamer Sensors with Temperature Correction” (University of Cincinnati, priority 2021, published 2024)

Details: room temperature; saturated concentration of target analyte; 20 mM tris buffer
Method: The sensors were all interrogated in 20 mM tris buffer (20 mM trizma base, 100 mM NaCl and 5 mM MgCl2). FIG. 5 illustrates the equilibration of a sensor response with or without the presence of analyte target such as ATP, Tobramycin, or Cocaine.
The aptamers were equilibrated, interrogated, and regenerated in tris buffer at 1° C., 22° C. and 37° C. […] The performance of each E-AB sensor was characterized to determine their expected response in room temperature (RT).
To fabricate the E-AB sensors, the 2 mm diameter gold disk macro electrodes (CH Instruments, Austin, TX) were hand polished for 2 min in a 1 μm diamond slurry (Buehler, Lake Bluff, IL) followed by polishing for 2 min in 0.05 μm alumina oxide slurry (Buehler, Lake Bluff, IL). All electrodes were rinsed with ultrapure water (Milli-Q Ultrapure Water Purification, Millipore, Billerica, MA, U.S.A.). To remove particulates, the electrodes were sonicated in a low power sonicator for 5 min. Next, the electrodes were electrochemically cleaned in various concentrations of sodium hydroxide and sulfuric acid solutions. Sensor fabrication consists of numerous steps of incubation. First, 2 uL of 100 mM TCEP was added to 1 μL of aptamer and left to incubate for 1 h to perform a disulfide bond reaction. […]

## cocaine
  percent signal change (increase in current): 56%
